In patent US20240246937A1 (MERCK SHARP & DOHME LLC, priority 2021, published 2024):

Target: recombinant IL4I1 (Homo sapiens (Human), UniProt Q96RQ9)
Assay: IL4I1 Enzymatic Assay (Amplex Red/HRP coupled fluorescence detection of H2O2)
Format: biochemical
Conditions: 240 min; recombinant IL4I1, four-hour pre-incubation with compound
Procedure, shortened: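 Recombinant human IL4I1 (1 nM final) pre-incubated 4 h with compound at ambient temperature in 50 mM Hepes pH 7.0, 0.005% Tween20. Started with 1 mM each Phe/Tyr/Trp plus Amplex Red/HRP; H2O2-derived resorufin fluorescence read after 120 min; EC50 from ten-point 1:3 titration, four-parameter fit.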

Chain of recombinant IL4I1 (Q96RQ9 22-567): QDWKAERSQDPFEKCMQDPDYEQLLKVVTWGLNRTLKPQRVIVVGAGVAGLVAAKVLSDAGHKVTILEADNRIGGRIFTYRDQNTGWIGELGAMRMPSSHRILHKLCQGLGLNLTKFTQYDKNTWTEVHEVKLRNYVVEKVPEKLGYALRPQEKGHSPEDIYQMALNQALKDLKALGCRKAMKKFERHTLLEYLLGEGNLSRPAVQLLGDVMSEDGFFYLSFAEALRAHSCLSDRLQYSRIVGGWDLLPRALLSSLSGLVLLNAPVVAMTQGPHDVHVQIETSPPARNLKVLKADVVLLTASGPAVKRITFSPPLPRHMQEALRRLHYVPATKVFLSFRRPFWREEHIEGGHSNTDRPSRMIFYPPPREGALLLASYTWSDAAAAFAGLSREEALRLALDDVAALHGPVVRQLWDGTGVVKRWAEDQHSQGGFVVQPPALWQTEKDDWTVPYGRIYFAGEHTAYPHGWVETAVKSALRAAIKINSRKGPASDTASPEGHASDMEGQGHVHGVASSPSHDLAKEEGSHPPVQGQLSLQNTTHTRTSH

Compound	EC50 [nM]
O=c1c(=O)n(C23CC(F)(C2)C3)ccn1Cc1ccc(-c2ccccc2F)nn1 [Example 201, 1-(3-fluorobicyclo[1.1.1]pentan-1-yl)-4-((6-(2-fluorophenyl)pyridazin-3-yl)methyl)-1,4-dihydropyrazine-2,3-dione]	30
O=c1c(=O)n(C2(CF)CC2)ccn1Cc1ccc(-n2nccn2)nc1 [Example 264, 1-((6-(2H-1,2,3-triazol-2-yl)pyridin-3-yl)methyl)-4-(1-(fluoromethyl)cyclopropyl)-1,4-dihydropyrazine-2,3-dione]	73
N#CC1(n2ccn(Cc3cc(-c4cccnc4)on3)c(=O)c2=O)CC1 [Example 210, 1-(2,3-dioxo-4-((5-(pyridin-3-yl)isoxazol-3-yl)methyl)-3,4-dihydropyrazin-1(2H)-yl)cyclopropane-1-carbonitrile]	92
O=C1C(=O)N(C23CC(C2)C3)CCN1Cc1ccc(-n2nccn2)cc1F [Example 407, 1-(bicyclo[1.1.1]pentan-1-yl)-4-(2-fluoro-4-(2H-1,2,3-triazol-2-yl)benzyl)piperazine-2,3-dione]	27
O=C1C(=O)N(C2CCC2)CCN1Cc1cnc(-c2ccccc2F)cn1 [Example 73, 1-cyclobutyl-4-((5-(2-fluorophenyl)pyrazin-2-yl)methyl)piperazine-2,3-dione]	9
CC1(N2CCN(Cc3nnc(-c4ccccc4)s3)C(=O)C2=O)CCC1 [Example 166, 1-(1-methylcyclobutyl)-4-((5-phenyl-1,3,4-thiadiazol-2-yl)methyl)piperazine-2,3-dione]	10
O=C1C(=O)N(C2CCCC2)CCN1Cc1ccc(N2CC3CC3C2)nn1 (stereo not drawn) [Example 320, 1-((6-(3-azabicyclo[3.1.0]hexan-3-yl)pyridazin-3-yl)methyl)-4-cyclopentylpiperazine-2,3-dione]	20
O=C1C(=O)N([C@H]2C[C@@H](c3ccccc3)C2)CCN1Cc1ccc(-c2ccccc2)nc1 [Example 266A, cis-1-(3-phenylcyclobutyl)-4-((6-phenylpyridin-3-yl)methyl)piperazine-2,3-dione]	4
O=c1c(=O)n(C2CCC2)ccn1Cc1ncc(-c2ccccc2)cn1 [Example 143, 1-cyclobutyl-4-((5-phenylpyrimidin-2-yl)methyl)-1,4-dihydropyrazine-2,3-dione]	15
C[C@H](c1nnc(-c2ccccc2)s1)N1CCN(C2CCCC2)C(=O)C1=O [Example 348, (R)-1-cyclopentyl-4-(1-(5-phenyl-1,3,4-thiadiazol-2-yl)ethyl)piperazine-2,3-dione]	18
O=C1C(=O)N(C2CCC2)CCN1Cc1cc(-c2ccccn2)on1 [Example 138, 1-cyclobutyl-4-((5-(pyridin-2-yl)isoxazol-3-yl)methyl)piperazine-2,3-dione]	12
O=c1c(=O)n(C23CC(C2)C3)ccn1Cc1nnc(-c2ccccc2F)s1 [Example 68, 1-(bicyclo[1.1.1]pentan-1-yl)-4-((5-(2-fluorophenyl)-1,3,4-thiadiazol-2-yl)methyl)-1,4-dihydropyrazine-2,3-dione]	5
C[C@@H](c1nnc(-c2ccccc2)s1)N1CCN(C2CCC2)C(=O)C1=O [Example 356, (S)-1-cyclobutyl-4-(1-(5-phenyl-1,3,4-thiadiazol-2-yl)ethyl)piperazine-2,3-dione]	28
O=c1c(=O)n(C23CC(F)(C2)C3)ccn1Cc1ccc(-n2ccnn2)cn1 [Example 262, 1-((5-(1H-1,2,3-triazol-1-yl)pyridin-2-yl)methyl)-4-(3-fluorobicyclo[1.1.1]pentan-1-yl)-1,4-dihydropyrazine-2,3-dione]	868
O=C1C(=O)N(C2CCCC2)CCN1Cc1nnc(N2CC[C@H](F)C2)s1 [Example 311, (S)-1-cyclopentyl-4-((5-(3-fluoropyrrolidin-1-yl)-1,3,4-thiadiazol-2-yl)methyl)piperazine-2,3-dione]	60
O=c1c(=O)n(C2CCCC2)ccn1Cc1cc(-c2ccccn2)no1 [Example 163, 1-cyclopentyl-4-((3-(pyridin-2-yl)isoxazol-5-yl)methyl)-1,4-dihydropyrazine-2,3-dione]	6
O=C1C(=O)N(C23CC(C2)C3)CCN1Cc1cnc(-c2ccccc2)cn1 [Example 112, 1-(bicyclo[1.1.1]pentan-1-yl)-4-((5-phenylpyrazin-2-yl)methyl)piperazine-2,3-dione]	7
O=C1C(=O)N(C2CCCC2)CCN1Cc1ccc(-c2ccccc2)[n+]([O-])c1 [Example 267, 5-((4-cyclopentyl-2,3-dioxopiperazin-1-yl)methyl)-2-phenylpyridine 1-oxide]	57
O=c1c(=O)n(C23CC(F)(C2)C3)ccn1Cc1ccc(-n2ccnn2)nc1 [Example 230, 1-((6-(1H-1,2,3-triazol-1-yl)pyridin-3-yl)methyl)-4-(3-fluorobicyclo[1.1.1]pentan-1-yl)-1,4-dihydropyrazine-2,3-dione]	91
O=c1c(=O)n(C2CCCC2)ccn1Cc1ccc(-c2ccccc2F)nn1 [Example 53, 1-cyclopentyl-4-((6-(2-fluorophenyl)pyridazin-3-yl)methyl)-1,4-dihydropyrazine-2,3-dione]	7

Compound	EC50 [nM]
O=C1C(=O)N(C2CCCC2)CCN1Cc1ncc(-c2cncs2)cn1 [Example 5, 1-cyclopentyl-4-((5-(thiazol-5-yl)pyrimidin-2-yl)methyl)piperazine-2,3-dione]	50
O=C1C(=O)N(C2CCCC2)CCN1Cc1ncc(-c2cn[nH]c2)cc1F [Example 16, 1-cyclopentyl-4-((3-fluoro-5-(1H-pyrazol-4-yl)pyridin-2-yl)methyl)piperazine-2,3-dione]	16
O=C1C(=O)N(C2CCCC2)CCN1Cc1ccc(-c2ccccc2)nn1 [Example 3, 1-cyclopentyl-4-((6-phenylpyridazin-3-yl)methyl)piperazine-2,3-dione]	12
O=C1C(=O)N([C@@H]2CC[C@@H](c3ccccc3)C2)CCN1Cc1nnc(-c2ccccc2)s1 (single isomer, unassigned) [Example 440C, (R or S, R or S)-1-((5-phenyl-1,3,4-thiadiazol-2-yl)methyl)-4-(3-phenylcyclopentyl)piperazine-2,3-dione]	10
O=c1c(=O)n([C@H]2C[C@H]3C[C@H]3C2)ccn1Cc1ccc(-n2nccn2)cn1 [Example 408, 1-((5-(2H-1,2,3-triazol-2-yl)pyridin-2-yl)methyl)-4-((cis)-bicyclo[3.1.0]hexan-3-yl)-1,4-dihydropyrazine-2,3-dione]	8
O=C1C(=O)N(C2CCC2)CCN1Cc1nnc(-c2ccccc2F)s1 [Example 33, 1-cyclobutyl-4-((5-(2-fluorophenyl)-1,3,4-thiadiazol-2-yl)methyl)piperazine-2,3-dione]	8
O=C1C(=O)N(C2CCCC2)CCN1Cc1cc(-c2ccccc2)on1 [Example 104, 1-cyclopentyl-4-((5-phenylisoxazol-3-yl)methyl)piperazine-2,3-dione]	4
O=c1c(=O)n(C2(CF)CC2)ccn1Cc1cn(-c2ccccn2)nn1 [Example 257, 1-(1-(fluoromethyl)cyclopropyl)-4-((1-(pyridin-2-yl)-1H-1,2,3-triazol-4-yl)methyl)-1,4-dihydropyrazine-2,3-dione]	68
O=C1C(=O)N(C2CCCC2)CCN1Cc1ccc(-c2cn[nH]c2)nc1 [Example 24, 1-((6-(1H-pyrazol-4-yl)pyridin-3-yl)methyl)-4-cyclopentylpiperazine-2,3-dione]	30
O=C1C(=O)N(C2CCC2)CCN1Cc1ncc(-c2ccccc2)s1 [Example 69, 1-cyclobutyl-4-((5-phenylthiazol-2-yl)methyl)piperazine-2,3-dione]	3
O=c1c(=O)n(C2CCC2)ccn1Cc1ccc(-c2cccc(F)c2F)nn1 [Example 71, 1-cyclobutyl-4-((6-(2,3-difluorophenyl)pyridazin-3-yl)methyl)-1,4-dihydropyrazine-2,3-dione]	6
O=C1C(=O)N(C2CCC2)CCN1Cc1ccc(-n2nccn2)cc1 [Example 399, 1-(4-(2H-1,2,3-triazol-2-yl)benzyl)-4-cyclobutylpiperazine-2,3-dione]	19
O=c1c(=O)n(C23CC(C2)C3)ccn1Cc1ccc(-n2ccnn2)nc1 [Example 411, 1-((6-(1H-1,2,3-triazol-1-yl)pyridin-3-yl)methyl)-4-(bicyclo[1.1.1]pentan-1-yl)-1,4-dihydropyrazine-2,3-dione]	7
O=C1C(=O)N(C2CCCC2)CCN1Cc1ccc(-c2ccccc2)cc1F [Example 100, 1-cyclopentyl-4-((3-fluoro-[1,1′-biphenyl]-4-yl)methyl)piperazine-2,3-dione]	8
O=c1c(=O)n(C2CCC2)ccn1Cc1ccc(-c2nccs2)nn1 [Example 367, 1-cyclobutyl-4-((6-(thiazol-2-yl)pyridazin-3-yl)methyl)-1,4-dihydropyrazine-2,3-dione]	9
CC1CCC(N2CCN(Cc3ncc(-c4ccccc4)cn3)C(=O)C2=O)C1 (single isomer, unassigned) [Example 344, (R or S, R or S)-1-(3-methylcyclopentyl)-4-((5-phenylpyrimidin-2-yl)methyl)piperazine-2,3-dione]	49
O=c1c(=O)n(C2(CF)CC2)ccn1Cc1ccc(-c2cccnc2)nn1 [Example 227, 1-(1-(fluoromethyl)cyclopropyl)-4-((6-(pyridin-3-yl)pyridazin-3-yl)methyl)-1,4-dihydropyrazine-2,3-dione]	69
O=C1C(=O)N(C2CCC2)CCN1Cc1ccc(-c2cn[nH]c2)nn1 [Example 25, 1-((6-(1H-pyrazol-4-yl)pyridazin-3-yl)methyl)-4-cyclobutylpiperazine-2,3-dione]	21
[2H]c1c([2H])c([2H])c(-c2ccc(CN3CCN(C4CCC4)C(=O)C3=O)nn2)c([2H])c1[2H] [Example 80, 1-cyclobutyl-4-((6-(phenyl-d5)pyridazin-3-yl)methyl)piperazine-2,3-dione]	15
